Results from patent publication US10363261B2, “Enolase inhibitors and methods of treatment therewith” (Board of Regents, The University of Texas System, priority 2015, dated 2019).
Several values for one entry are separate records, joined by “and”; a condition that tells them apart may be missing. Identical values can stand only once.

Assays:
[1] = test system: lactate/glucose in D423 ENO1-rescued glioma cells; assay: 13C-NMR tracing of uniformly labeled 13C-glucose to 13C-lactate, rescued cells; conditions: even at 200 μM
Description: Glucose labeled with heavy, non-radioactive, ^13C at carbon C-1 and ^13C at all carbon atoms were purchased from Cambridge Isotopes (CLM-420-1 and CLM-1396, respectively). Glucose free DMEM media was supplemented with 10 mM ^13C-1 or ^13C-all labeled Glucose. NMR metabolic tracing was performed by substituting conventional DMEM medium with glucose free DMEM medium, to which ^13C-1 glucose (Cambridge Isotopes) was supplemented at 10 mM. […] After 4 days, conditioned media was extracted with 80% methanol at −80° C., lyophilized and resuspended in D2O. Proton-decoupled ^13C NMR spectra were acquired using a 500 MHZ Bruker instrument in the M. D. Anderson NMR core facility.

[2] = target: T1, ENO2 (Homo sapiens, UniProt P09104); assay: Thermal shift assay on recombinant human ENO2 expressed in E. coli; format: binding; parameters: DNA encoding full length Human Enolase 2 was cloned into pJL-H6 plasmid expression vector; His tag (pJL-H6) (C); made in house; host or cells: E. coli BL21 (DE3); conditions: 10 μM inhibitor
Description: Thermal shift assays were conducted as described in Martinez Molina, et al. (2013), on lysates of D423 cell line overexpressing ENO1 and ENO2, on recombinant human ENO1 and ENO2 purified from E. coli as well as intact D423 ENO2 overexpressing glioma cells. […] Lysates were diluted (1:100) in Enolase enzymatic activity buffer as mentioned above. Diluted lysates were treated with SF2312, PhAH or vehicle and heated on a C1000 Thermal cycler (Bio-rad) with a linear temperature gradient (50 to 82.5° C. in 2.5° C. increments) for 3 minutes (FIG. 24). The lysates were then centrifuged at 20,000 g for 10 minutes. Supernatant and pellet were then separated and NuPage LDS Sample buffer (Life Technologies # NP0007) was added. Western Blots were performed as described previously (Muller, et al., 2012). The following antibodies were used: ENO1 (Abcam # ab155102), ENO2 (Dako # M087301-2), Vinculin (EMD Millipore #05-386), pan-ENO (Santa Cruz Biotechnology, sc-7455) and TPI (Proteintech #10713-1-AP). Recombinant human ENO2: The same procedure was carried out on purified recombinant ENO2 from E. coli, utilizing the purified protein generated for the X-ray crystallography studies. […]

[3] = test system: ENO1-intact glioma cells; assay: Toxicity to ENO1-intact glioma cells during 13C-1 glucose tracing; format: cell-based, human; conditions: 10 μM, four days
Description: ^13C-1 glucose tracing by NMR treatment was performed with a concentration of SF2312 (10 μM) that is non-toxic to ENO1-intact glioma cells for four days, led to profound inhibition of glucose consumption (isomeric peaks at 97 and 93 ppm) and lactate production (single peak at 20 ppm) in the media of D423 and Gli56 ENO1 deleted but not ENO1-intact glioma cells (FIG. 33). At the same time, a single peak at 64 ppm became visible in the D423 and Gli56 ENO1-deleted cells treated with SF2312. The most likely origin of this peak is the C-3 atom glycerate, which has a reported ^13C peak of 64 ppm (Spectral Database of Organic Compounds, SDBS No. 18695) and is the atom on which the ^13C label derived from the C-1 atom on glucose is expected. […] Glycerate likely forms in response to enolase inhibition as 2-PGA or 3-PGA accumulate and (the substrates of the enzyme) spontaneously hydrolyze, or alternatively, are dephosphorylated by the action of glycerate kinase (GLYCTK, FIG. 41). These experiments were repeated with D423 ENO1-deleted and isogenic ENO1-rescued control glioma cells with both PhAH and SF2312 (FIGS. 32C & 32D). […] This effect is especially noticeable when expressed as a ratio of ^13C-glycerate to ^13C-lactate, metabolites upstream and downstream of the enolase reaction, respectively (FIG. 32D). […]

[4] = target: human ENO1 (Homo sapiens, UniProt P06733); assay: Enolase enzymatic activity, NADH-linked pyruvate kinase/lactate dehydrogenase fluorescence assay, ENO1
Description: Human ENO1 and ENO2 were overexpressed in the human D423 cell line and used for enzymatic assays. Inhibitors (PhAH, SF2312 and Deoxy-SF2312, Hex, Hepta, Pom-Hex, and Fosmidomycin) were incubated with the enzyme prior to addition of 5 mM 2-PG substrate. Enzymatic activity was measured by monitoring fluorescence of NADH at 340 nm Exitation/460 nm emission using an Lactate dehydrogenase/Pyruvate kinase linked assay which links the formation of PEP to the oxidation of NADH to NAD+, as we have described in published work (Muller et al., 2012). Enzymatic activity was normalized to that in the absence of the inhibitor (set to 1) and plotted as function of inhibitor concentration.
Enolase activity was measured using two different methods, either by a fluorometric NADH-linked assay or a direct spectrophotometric assay via formation of PEP. In the fluorescent assay, enolase activity was measured via NADH oxidation in a pyruvate kinase-lactate dehydrogenase coupled assay as previously described (Muller, et al., 2012). The assay is conducted in 10 mM KCl, 5 mM MgSO4, 100 mM triethanolamine at pH 7.4, with 400 μM NADH and 2 mM ADP. 2-Phosphoglycerate (2-PGA), pyruvate kinase (PK) and lactate dehydrogenase (LDH) are provided in excess, with conversion of 2-PGA to PEP by enolase being rate limiting. PEP (with ADP) is substrate of PK; pyruvate formed by this reaction is linked to NADH oxidation by LDH. Enolase activity is determined by measuring oxidation of NADH fluorescently by excitation at 340 nm and emission at 460 nm. The substrate concentration, if not otherwise indicated, was 5 mM 2-PGA. Fluorescence was measured using Omega Fluorescence Plate Reader (BMG Labtech). Alternatively, Enolase activity was measured directly by the appearance of PEP from 2-PGA via absorption at 240 nm (Marangos, et al., 1978). The assay medium was the same, except that all the auxiliary reagents (PK/LDH, NADH, ADP) are omitted. Both assays were conducted in a 96-well plated format with the direct assay performed in UV-transmissible plates.

[5] = test system: ATP levels in D423 ENO1-deleted glioma cells; assay: ATP content (CellTiter-Glo); format: cell-based, human; conditions: 8 hours of treatment
Description: Cell proliferation of glioma cell lines was assayed either through crystal violet staining or by live-cell confluence measurements with the IncuCyte (Essen BioScience). Growth curves using the IncuCyte were generated by confluence imaging every 4 hours with duplicate replicates with an initial seeding of 1500 cells/well in 96-well plates. At the indicated time point, cells were fixed with 10% formalin and stained with crystal violet. Dye extraction was performed using 10% acetic acid solution, and absorbance was read at 595 nm. Apoptotic cells were counted by staining with YO-PRO®-1 Iodide (491/509, Life Technologies, Y3603). Apoptotic cells become permeable to YO-PRO®-1 while live cells are not stained. Alternatively, Propidium Iodide was employed (Life Technologies) instead of YO-PRO. Total cell number was quantified by Hoechst 33342 (Cat# H3570 Invitrogen). Cells were seeded as 2×10^3 cells/well in 96-well plates and treated in the presence or absence of doxycycline. On the day of apoptosis survey, old media was removed and each well was filled to 100 μl with fresh media. Hoechst and YO-PRO®-1 were mixed in 1:100 PBS and 10 μl of the mixture was added in each well gently without touching the cells for a final dilution of 1:1000 from stock. Plates were then incubated at 37° C. for 2 hours. Image capture and quantification was done by High Content Screening System—Operetta (Perkin Elmer). ATP content was measured with the luciferase/luciferin CellTiter-Glo® assay. Briefly, 100 μl of CellTiter-Glo® assay media was added to 96-well plates containing 100 μl of media and cells. Lysis was achieved by the […] in the buffer and vigorous pipetting, and luminescence was determined using an Omega Luminescence Plate Reader (BMG Labtech). Results were expressed relative to vehicle treated control.

[6] = target: T1, ENO2; assay: Ligand-induced thermal shift assay on cell lysates (D423 overexpressing ENO2); format: binding; parameters: expressed in transfected cells; host or cells: D423 (D423-MG) human glioma cells, clone pCMV ENO2 1x
Description: Lysates: The lysates were prepared in 20 mM Tris-HCl, 1 mM EDTA and 1 mM β-mercaptoethanol at pH 7.4 and homogenized using a Polytron homogenizer three times for a period of 10 s followed by sonication, after which the lysates were cleared by centrifugation at 20,000 g for 10 minutes. Lysates were diluted (1:100) in Enolase enzymatic activity buffer as mentioned above. […] The lysates were then centrifuged at 20,000 g for 10 minutes. Supernatant and pellet were then separated and NuPage LDS Sample buffer (Life Technologies # NP0007) was added.
As an additional test of SF2312 binding to the enolase protein, ligand-induced thermal shift assays were performed on cell lysates under the same conditions as we performed the enzymatic assay (Martinez Molina, et al., 2013). The principal of the assay is that heat-denatured proteins precipitate out of solution when their hydrophobic core is exposed. As a result, heat denatured proteins disappear from the lysate after centrifugation, whereas native properly folded proteins remain in solution. The levels of specific proteins in the supernatant, such as non-denatured proteins, are followed by immunoblotting as a function of increasing temperature.

T1 sequence (P09104 whole entry): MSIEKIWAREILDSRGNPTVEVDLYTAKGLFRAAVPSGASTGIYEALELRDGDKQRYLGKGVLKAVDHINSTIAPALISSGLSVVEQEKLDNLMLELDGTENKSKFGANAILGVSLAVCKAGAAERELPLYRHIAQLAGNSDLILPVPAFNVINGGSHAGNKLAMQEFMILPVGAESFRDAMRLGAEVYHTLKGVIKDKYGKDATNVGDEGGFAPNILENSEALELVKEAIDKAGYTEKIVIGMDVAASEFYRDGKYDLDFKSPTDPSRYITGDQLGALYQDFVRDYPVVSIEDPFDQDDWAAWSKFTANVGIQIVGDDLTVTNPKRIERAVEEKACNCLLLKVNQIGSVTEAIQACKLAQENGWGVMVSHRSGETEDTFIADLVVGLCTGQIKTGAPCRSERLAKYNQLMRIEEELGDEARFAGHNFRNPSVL
human ENO1, sequence (P06733 whole entry): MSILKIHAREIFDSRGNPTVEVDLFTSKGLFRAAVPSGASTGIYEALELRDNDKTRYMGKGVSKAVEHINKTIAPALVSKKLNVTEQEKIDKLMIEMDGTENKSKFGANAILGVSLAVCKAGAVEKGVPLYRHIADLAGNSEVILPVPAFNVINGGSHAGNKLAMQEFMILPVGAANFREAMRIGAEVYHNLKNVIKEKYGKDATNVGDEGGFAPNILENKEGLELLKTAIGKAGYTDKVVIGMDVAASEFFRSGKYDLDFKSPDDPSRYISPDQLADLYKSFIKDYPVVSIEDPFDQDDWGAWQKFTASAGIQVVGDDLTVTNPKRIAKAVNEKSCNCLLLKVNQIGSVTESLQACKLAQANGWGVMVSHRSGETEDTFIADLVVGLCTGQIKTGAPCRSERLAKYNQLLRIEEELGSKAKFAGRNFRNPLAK

Question: O=C1C(P(=O)(O)O)CC(O)N1O (racemic) [SF2312, 3-dihydroxyphosphoryl-1,5-dihydroxy-2-pyrrolidone] was tested. Which “effect on lactate/glucose in ENO1-rescued cells” value [1] did it give?
Answer: neither PhAH nor SF2312 decreased lactate/glucose

Question: What about the “thermal stabilization of recombinant ENO2” value [2] of the same compound?
Answer: ~15 °C

Question: What about the “toxicity to ENO1-intact glioma cells” value [3] of the same compound?
Answer: non-toxic

Question: What about the IC50 [4] of the same compound?
Answer: ~0.02 µM

Question: And the “concentration reducing ATP levels by >40%” value [5]?
Answer: 12.5 µM

Question: What about the “fold more potent than PhAH at decreasing ATP levels” value [5] of the same compound?
Answer: ~8 fold

Question: What about the “shift in the thermal denaturation of ENO2” value ([6]; 1 μM inhibitor) of the same compound?
Answer: > 7.5 °C and 7.5 °C

Question: And the “melting temperature of ENO2 with inhibitor” value ([6]; 1 μM, from ~67.5 ° C. without inhibitor)?
Answer: > 75 °C
